Source: ChEMBL document CHEMBL2412992, “Fluorescent ligands for adenosine receptors” (Bioorg Med Chem Lett, 2013)
Blank lines part the entries; values can stand above or below the molecule they belong to. Active and inactive are the calls of the source. The rule behind the calls is not given here.

Legend:
[1] = biological target: T1, Adenosine receptor A3 (Homo sapiens, UniProt P0DMS8)
T1 sequence (P0DMS8 whole entry): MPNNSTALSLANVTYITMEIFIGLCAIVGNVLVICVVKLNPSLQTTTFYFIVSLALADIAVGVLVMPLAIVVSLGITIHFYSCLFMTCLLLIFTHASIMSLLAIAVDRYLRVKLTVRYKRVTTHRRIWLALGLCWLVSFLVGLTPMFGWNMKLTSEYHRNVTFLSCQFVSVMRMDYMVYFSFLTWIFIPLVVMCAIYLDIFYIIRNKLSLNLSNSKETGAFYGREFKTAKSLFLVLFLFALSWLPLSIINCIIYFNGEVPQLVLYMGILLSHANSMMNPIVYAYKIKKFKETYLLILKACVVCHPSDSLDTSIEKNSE
Description: (§1) Displacement of [125I]I-AB-MECA from human adenosine A3 receptor expressed in CHO cells after 90 mins by gamma counting analysis

[2] = biological target: T2, Adenosine receptor A1 (Homo sapiens, UniProt P30542); assay: Antagonist activity at human adenosine A1 receptor expressed in CHO cells coexpressing cAMP response element assessed as inhibition of agonist-induced response by SPAP reporter gene assay in presence of forskolin; assay type: functional, cell-based
T2 sequence (P30542 whole entry): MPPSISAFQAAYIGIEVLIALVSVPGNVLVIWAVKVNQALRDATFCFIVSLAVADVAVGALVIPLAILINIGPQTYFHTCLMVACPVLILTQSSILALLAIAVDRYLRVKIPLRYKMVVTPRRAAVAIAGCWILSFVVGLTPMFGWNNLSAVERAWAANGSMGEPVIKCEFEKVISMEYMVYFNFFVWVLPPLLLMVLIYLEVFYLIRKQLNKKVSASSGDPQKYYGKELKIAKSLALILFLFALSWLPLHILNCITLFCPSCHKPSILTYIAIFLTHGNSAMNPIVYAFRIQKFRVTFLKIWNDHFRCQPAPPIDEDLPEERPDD

[3] = biological target: T2, Adenosine receptor A1; assay: Displacement of [3H]DPCPX from adenosine A1 receptor in human cortical membranes; assay type: cell membranes
[4] = biological target: T1, Adenosine receptor A3; assay type: cell-based, CHO
[5] = biological target: T3, Adenosine receptor A2a (Homo sapiens, UniProt P29274); assay: Displacement of [3H]CGS21680 from adenosine A2A receptor in human striatal membranes; assay type: cell membranes, Striatum, Membrane
T3 sequence (P29274 whole entry): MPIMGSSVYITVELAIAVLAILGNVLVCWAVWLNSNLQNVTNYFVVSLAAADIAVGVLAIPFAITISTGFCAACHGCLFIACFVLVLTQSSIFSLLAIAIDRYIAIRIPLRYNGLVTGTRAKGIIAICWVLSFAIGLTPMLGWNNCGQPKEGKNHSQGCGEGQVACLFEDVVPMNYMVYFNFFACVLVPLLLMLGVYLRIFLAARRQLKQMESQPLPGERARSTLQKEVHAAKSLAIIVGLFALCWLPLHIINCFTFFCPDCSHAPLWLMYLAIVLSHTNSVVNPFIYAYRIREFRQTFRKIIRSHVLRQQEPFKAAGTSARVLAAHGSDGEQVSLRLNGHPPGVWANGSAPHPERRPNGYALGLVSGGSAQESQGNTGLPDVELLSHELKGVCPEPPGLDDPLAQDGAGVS

[6] = biological target: T3, Adenosine receptor A2a; assay: Binding affinity to human adenosine A2A receptor expressed in HEK293 cells by fluorescence polarization assay; assay type: cell-based
[7] = biological target: T1, Adenosine receptor A3; remark: listed apart in the source
Description: Competitive binding affinity to human adenosine A3 receptor expressed in CHO cells after 90 mins by flow cytometric analysis in presence of MRS5449

[8] = biological target: T1, Adenosine receptor A3; assay: biochemical
Description: as §1

[9] = biological target: T4, Adenosine receptor A1 (Homo sapiens) (UniProt P30542); assay: Displacement of [3H]R-PIA from human adenosine A1 receptor expressed in CHO cells at 10 uM after 60 mins by […] analysis relative to control; assay type: cell-based
T4 sequence (whole entry): T2 sequence (P30542 whole entry)

[10] = biological target: T1, Adenosine receptor A3; assay type: cell-based, CHO; remark: listed apart in the source
[11] = biological target: T3, Adenosine receptor A2a; assay: Displacement of [3H]CGS21680 from human adenosine A2A receptor expressed in HEK293 cells after 60 mins by […] analysis; assay type: cell-based
[12] = biological target: T5, Adenosine receptor A1 (Rattus norvegicus, UniProt P25099); assay: Displacement of [3H]ADAC from adenosine A1 receptor in rat cerebral cortical membranes after 120 mins; assay type: cell membranes, Membrane
T5 sequence (P25099 whole entry): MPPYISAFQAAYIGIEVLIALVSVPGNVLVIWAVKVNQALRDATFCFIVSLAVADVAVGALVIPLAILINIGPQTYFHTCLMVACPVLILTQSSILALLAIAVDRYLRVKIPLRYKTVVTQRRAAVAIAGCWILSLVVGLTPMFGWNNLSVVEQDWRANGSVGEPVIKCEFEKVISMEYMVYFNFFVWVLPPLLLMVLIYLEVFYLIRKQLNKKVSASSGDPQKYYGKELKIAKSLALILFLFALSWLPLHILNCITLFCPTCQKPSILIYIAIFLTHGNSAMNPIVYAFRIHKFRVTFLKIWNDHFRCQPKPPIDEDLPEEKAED

[13] = biological target: T6, Adenosine receptor A1 (Bos taurus, UniProt P28190); assay: Displacement of [3H]ADAC from adenosine A1 receptor in bovine cerebral cortical membranes after 120 mins; assay type: cell membranes
T6 sequence (P28190 whole entry): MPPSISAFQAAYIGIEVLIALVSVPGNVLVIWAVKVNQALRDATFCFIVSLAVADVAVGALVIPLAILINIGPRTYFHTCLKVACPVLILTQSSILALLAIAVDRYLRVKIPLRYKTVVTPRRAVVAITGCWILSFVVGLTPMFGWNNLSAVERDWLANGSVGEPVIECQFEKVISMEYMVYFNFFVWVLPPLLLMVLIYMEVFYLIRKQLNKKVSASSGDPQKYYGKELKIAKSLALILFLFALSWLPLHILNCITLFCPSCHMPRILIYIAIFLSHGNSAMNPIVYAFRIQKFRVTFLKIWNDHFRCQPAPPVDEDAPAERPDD

[14] = biological target: T4, Adenosine receptor A1 (Homo sapiens); assay: Displacement of [3H]DPCPX from human adenosine A1 receptor expressed in CHO cells up to 0.1 mM after 2 hrs by scintillation counting analysis; assay type: cell-based
[15] = biological target: T2, Adenosine receptor A1; assay: Displacement of [3H]R-PIA from human adenosine A1 receptor expressed in CHO cells after 60 mins by […] analysis; assay type: cell-based
[16] = biological target: T1, Adenosine receptor A3; assay: Binding affinity to human adenosine A3 receptor expressed in CHO cells after 90 mins; assay type: cell-based
[17] = biological target: T1, Adenosine receptor A3; assay: Binding affinity to human adenosine A3 receptor expressed in CHO cells by flow cytometric analysis; assay type: cell-based

Structure (SMILES): Nc1nc2ccc(Cl)cc2c2nc(-c3ccco3)nn12 [CGS-15943]
Ki [1]: 35 nM

Structure (SMILES): CCNC(=O)[C@H]1O[C@@H](n2cnc3c(NCCCCCCCCNC(=O)COc4ccc(/C=C/C5=[N+]6C(=Cc7ccc(-c8cccs8)n7[B-]6(F)F)C=C5)cc4)ncnc32)[C@H](O)[C@@H]1O
Kd [2]: 14.1 nM

Structure (SMILES): CCNC(=O)[C@H]1O[C@@H](n2cnc3c(NCCCCCCCCNc4ccc([N+](=O)[O-])c5nonc45)ncnc32)[C@H](O)[C@@H]1O
Ki [3]: 3550 nM
Ki [4]: 7.41 nM
Ki [5]: 5130 nM

Structure (SMILES): CC[C@@H]1CN2C(=O)N(C)c3nc(-c4cc(Cl)cc(Cl)c4Cl)[nH]c3C2=N1
Ki [7]: 9.54 nM
Ki [8]: 0.441 nM

Structure (SMILES): CCNC(=O)[C@H]1O[C@@H](n2cnc3c(NCCNC(=O)COc4ccc(/C=C/C5=[N+]6C(=Cc7ccc(-c8cccs8)n7[B-]6(F)F)C=C5)cc4)ncnc32)[C@H](O)[C@@H]1O
Kd [2]: 14.5 nM

Structure (SMILES): CCNC(=O)[C@H]1O[C@@H](n2cnc3c(NCCCCCCNc4ccc([N+](=O)[O-])c5nonc45)ncnc32)[C@H](O)[C@@H]1O
Ki [3]: > 10000 nM
Ki [4]: 24 nM
Ki [5]: 6170 nM

Structure (SMILES): CCNC(=O)[C@H]1O[C@@H](n2cnc3c(NCCNc4ccc([N+](=O)[O-])c5nonc45)ncnc32)[C@H](O)[C@@H]1O
Ki [3]: > 10000 nM
Ki [4]: 56.2 nM
Ki [5]: 6760 nM

Structure (SMILES): CCNC(=O)[C@H]1O[C@@H](n2cnc3c(NCCCNC(=O)COc4ccc(/C=C/C5=[N+]6C(=Cc7ccc(-c8cccs8)n7[B-]6(F)F)C=C5)cc4)ncnc32)[C@H](O)[C@@H]1O
Kd [2]: 16.2 nM

Structure (SMILES): CCNC(=O)[C@H]1O[C@@H](n2cnc3c(NCCCCNC(=O)CCCCCN4/C(=C/C=C/C=C/C5=[N+](CC)c6cc(S(=O)(=O)O)ccc6C5(C)C)C(C)(C)c5cc(S(=O)(=O)[O-])ccc54)ncnc32)[C@H](O)[C@@H]1O
Activity [14]: inactive

Structure (SMILES): CCNC(=O)[C@H]1O[C@@H](n2cnc3c(NCCCCCCCCCCCNC(=O)COc4ccc(/C=C/C5=[N+]6C(=Cc7ccc(-c8cccs8)n7[B-]6(F)F)C=C5)cc4)ncnc32)[C@H](O)[C@@H]1O
Kd [2]: 12.9 nM

More lines, now with the values ahead:

Ki [1]: 743 nM
Structure (SMILES): Nc1nc(NCCc2ccc(O)cc2)nc2nc(-c3ccco3)nn12 [ZM-241385]

Kd [6]: 16.5 nM
Structure (SMILES): N=c1ccc2c(-c3ccc(C(=O)NCCCCCCn4cc(NCCNC(=O)COc5ccc(CCCn6ncc7c6nc(N)n6nc(-c8ccco8)nc76)cc5)nn4)cc3C(=O)O)c3ccc(N)c(S(=O)(=O)O)c3oc-2c1S(=O)(=O)O

inhibition [9]: 9%
Ki [10]: 5620 nM
Ki [11]: 1780 nM
Structure (SMILES): Cn1cc2c(nc(NCCCCCNC(=S)Nc3ccc(C4c5ccc(O)cc5OC5=CC(=O)C=CC54)c(C(=O)O)c3)n3nc(-c4ccco4)nc23)n1 (configuration not stated)

Ki [12]: 97.7 nM
Ki [13]: 17 nM
Structure (SMILES): CCCN1C(=O)C2NC(c3ccc(OCC(=O)NCCNC(=O)NCC(=O)NCC(=O)NCC(=S)c4ccc(C5c6ccc(O)cc6OC6=CC(=O)C=CC65)c(C(=O)O)c4)cc3)=NC2N(CCC)C1=O (configuration not stated)

inhibition [9]: 5%
Ki [10]: 2400 nM
Ki [11]: 2510 nM
Structure (SMILES): Cn1cc2c(nc(NCCCNC(=S)Nc3ccc(C4c5ccc(O)cc5OC5=CC(=O)C=CC54)c(C(=O)O)c3)n3nc(-c4ccco4)nc23)n1 (configuration not stated)

Ki [15]: 87.1 nM
Ki [10]: 6.46 nM
Ki [11]: 74.1 nM
Kd [16]: 6.65 nM
Kd [17]: 5.15 nM
Structure (SMILES): N=c1ccc2c(-c3ccc(C(=O)NCCCCCCn4cc(CCCC(=O)Nc5nc6ccc(Cl)cc6c6nc(-c7ccco7)nn56)nn4)cc3C(=O)O)c3ccc(N)c(S(=O)(=O)O)c3oc-2c1S(=O)(=O)O
